Data as given in patent publication US6399574B1 (priority 1997, dated 2002).
Values joined by “and” are separate entries in the source; they are usually repeats but may differ in a detail not shown here. Equal values may be shown once.

Assays:
[1] = test system: Frings audiogenic seizure-susceptible mice; conditions: mouse, in vivo
[2] = test system: Frings audiogenic seizure susceptible mice; conditions: mouse, in vivo

| Compound | toxicity (rotorod) [1] | animals protected [2] |
| --- | --- | --- |
| CC1(C)O[C@@H]2[C@@H](CO[C@@]3(COS(N)(=O)=O)OC(C)(C)O[C@@H]23)O1 [Topiramate, reference compound] | no marked |  |
| NC(=O)OCC(COC(N)=O)c1ccccc1 [Felbamate, reference compound] | no marked | 5/8 protected and 4/8 protected |
